PubChem BioAssay (NCI)
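48-hour exposure; five concentrations; linearly interpolated endpoints. GI50 = concentration required for 50% inhibition of growth. TGI: concentration producing complete growth inhibition.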

Legend:
Assay in all cases: DTP human tumour cell line panel, 48 h
SK-MEL-2 melanoma = system: SK-MEL-2 melanoma
OVCAR-4 ovarian = system: OVCAR-4 ovarian
NCI/ADR-RES ovarian = system: NCI/ADR-RES ovarian
UO-31 renal = system: UO-31 renal
SK-OV-3 ovarian = system: SK-OV-3 ovarian
T-47D breast = system: T-47D breast
OVCAR-3 ovarian = system: OVCAR-3 ovarian
CAKI-1 renal = system: CAKI-1 renal
SF-268 CNS = system: SF-268 CNS
SN12C renal = system: SN12C renal

Compound	GI50 (SK-MEL-2 melanoma)	TGI (SK-MEL-2 melanoma)	GI50 (OVCAR-4 ovarian)	TGI (OVCAR-4 ovarian)	GI50 (NCI/ADR-RES ovarian)	TGI (NCI/ADR-RES ovarian)	GI50 (UO-31 renal)	TGI (UO-31 renal)	GI50 (SK-OV-3 ovarian)	TGI (SK-OV-3 ovarian)	GI50 (T-47D breast)	TGI (T-47D breast)	GI50 (OVCAR-3 ovarian)	TGI (OVCAR-3 ovarian)	GI50 (CAKI-1 renal)	TGI (CAKI-1 renal)	GI50 (SF-268 CNS)	TGI (SF-268 CNS)	GI50 (SN12C renal)	TGI (SN12C renal)
COc1ccc(CNCCCN2C(=O)c3ccc4c5c(ccc(c35)C2=O)C(=O)N(CCCNCc2ccc(OC)c(OC)c2OC)C4=O)c(OC)c1OC	0.0911 µM	0.191 µM	0.0599 µM	0.127 µM	1.01 µM	3.01 µM	0.585 µM	1.22 µM	0.264 µM	0.848 µM	0.0983 µM	0.213 µM	0.0888 µM	0.23 µM	0.671 µM	1.95 µM	0.117 µM	0.353 µM	0.0821 µM	0.157 µM
COc1ccccc1NC(=O)CC(=O)n1nc(C)c(N=Nc2ccccc2Cl)c1C		> 100 µM		> 100 µM		> 100 µM		> 100 µM		98.6 µM		> 100 µM		> 100 µM		> 100 µM		> 100 µM		> 100 µM
CC1(C)N=c2cc3c(cc2N1c1ccc(Cl)cc1)=Nc1ccccc1N3c1ccc(Cl)cc1	3.9 µM	> 100 µM	4.33 µM	> 100 µM	5.21 µM	> 100 µM	2.96 µM	> 100 µM	> 100 µM	> 100 µM	3.91 µM	> 100 µM	4.07 µM	31.7 µM	18.2 µM	> 100 µM	7.56 µM	> 100 µM	7.9 µM	> 100 µM
COc1c(C)c(OC)c(C(=O)CC(C)C)c(OC)c1C		> 100 µM		> 100 µM		> 100 µM		> 100 µM		> 100 µM		> 100 µM		> 100 µM		> 100 µM		> 100 µM		> 100 µM
O=c1cc(-c2ccccc2)oc2c1ccc1ccccc12	74.7 µM	> 100 µM	21.2 µM	> 100 µM	30.5 µM	> 100 µM	8.55 µM	> 100 µM	19.3 µM	54.1 µM	23.9 µM	> 100 µM	30.9 µM	> 100 µM	18 µM	> 100 µM	37.3 µM	> 100 µM	19.6 µM	> 100 µM
FC(F)(F)c1cc(NC(=S)N2c3ccccc3-n3cccc3C2c2cccnc2)cc(C(F)(F)F)c1 (centres undefined)	12.7 µM	31.6 µM	6.24 µM	23.8 µM	4.18 µM	18.2 µM	19.9 µM	36.9 µM	11.9 µM	27.5 µM	3.89 µM	26.2 µM	3.01 µM	9.47 µM	5.36 µM	21.7 µM	9.91 µM	28.5 µM	12.1 µM	35.9 µM
CC(=O)Nc1ccc(OC(C)=O)cc1	< 0.01 µM	8.54 µM	< 0.01 µM	> 91.7 µM	< 0.0105 µM	> 7.41 µM	0.252 µM	26 µM	< 0.01 µM		5.74 µM	> 100 µM	< 0.01 µM	< 0.0134 µM	0.084 µM	28.8 µM	< 0.0103 µM	46.2 µM	< 0.01 µM	49.1 µM
